Test results published in patent publication US11064704B2, “Natural product formulations with improved residual insect repellent/deterrent activity” (University of Mississippi, priority 2016, dated 2021).

Test system: mosquitoes
Assay: in vivo direct skin application bioassay
Settings: 12.5% application rate
Method: Direct skin application bioassays were conducted by using a powder-free latex glove (Diamond Grip, Microflex Corporation, Reno, Nev.). An opening of 3×4 cm was cut through the glove to fit on dorsal surface of the hand (FIG. 1). After wearing the glove, a wristband was used to avoid the biting on the hand near the border of the glove. Approximately, 500 (±5%), consisting primarily of females were transferred to a test cage (45×45×45 cm) using an aspirator. A series of dosages were tested to determine MED for repellency as well as residual activity against mosquitoes. A single test consisted of covering the hand of a volunteer with a powder-free latex glove and treating 12 cm^2 surface area, cut through the glove, on dorsal surface of the hand. Marked skin surface area was treated with the test compound in 50 μl of total volume. Because of constrain of man power, only one volunteer who was provided with a written informed consent participated in this study. A protocol approved by the University of Mississippi Human Use Institutional Review Board (IRB protocol #15-070) was followed.
The test started when the hand treated (3×4 cm area cut through the glove on the dorsal surface) with a test compound was inserted into the mosquito cage. […] Any treatment with […] females biting during 1 min test period was considered as “passed” whereas a treatment with ≥5 bites out of 500 mosquitoes was considered as “failed”. In case of passing the next lower and in case of failure next higher serial dose was tested to reach MED. Additionally, data on the residual repellent activity was recorded by exposing the treatments to the females after every 30 minutes until the treatment failed. Carrot essential oil, carotol and DEET and the mixtures were tested.
Direct skin application bioassays were conducted by using a powder-free latex glove (Diamond Grip™, Microflex Corporation, Reno, Nev.). An opening of 3×4 cm was cut through the glove to fit on the dorsal surface of the hand. After donning the glove, a wristband was used to avoid biting on the hand near the border of the glove. Approximately 500 (±5%) mosquitoes, consisting primarily of females, were transferred to a test cage (45×45×45 cm) using an aspirator. A series of dosages were tested to determine MED for repellency as well as residual activity against mosquitoes.
A single test consisted of covering the hand of a volunteer with a powder-free latex glove and treating a 12 cm^2 surface area, cut through the glove, on the dorsal surface of the hand. Marked skin surface area was treated with the test compound in 50 μl of total volume. Because of constraints of man power, only one volunteer who was provided with a written informed consent participated in this study. A protocol approved by the University of Mississippi Human Use Institutional Review Board (IRB Protocol #15-070) was followed.
The test started when the hand treated (3×4 cm area cut through the glove on the dorsal surface) with a test compound was inserted into the mosquito cage. […] Any treatment with ≤5 females biting during the 1 min test period was considered as “passed”, whereas a treatment with ≥5 bites out of 500 mosquitoes was considered as “failed”. In case of passing, the next lower, and in case of failure, the next higher, serial dose was tested to reach MED. Additionally, data on the residual repellent activity were recorded by exposing the treatments to the females after every 30 minutes until the treatment failed. Carrot seed essential oil, carotol, geranium and lemon Eucalyptus essential oils, DEET, picaridin and the mixtures were tested.

`CCCCCCCCCCC(=O)O` [Undecanoic acid, undecanoic acid, reference compound] was tested, and the “residual activity: time post application at which MED reached/crossed” value was 1.5 h.
